The test system of experiment [1] is S. aureus UC® No. 9213. Nature of the experiment: Murine Assay: in vivo antimicrobial activity, survival of infected mice. Details: species or system Staphylococcus aureus. As to conditions: survival over six days; for ED50: Staphylococcus aureus, oral treatment one hour and five hours after infection, probit analysis. As to the method:
Antimicrobial activity was tested in vivo using the Murine Assay procedure. Groups of female mice (six mice of 18-20 grams each) were injected intraperitoneally with Staphylococcus aureus bacteria which were thawed just prior to use and suspended in brain heart infusion with 4% brewers yeast (Staphylococcus aureus) or brain heart infusion (Streptococcus species). Antibiotic treatment at six dose levels per drug was administered one hour and five hours after infection by either oral intubation or subcutaneous routes. Survival was observed daily for six days. ED50 values based on mortality ratios were calculated using probit analysis. The subject compounds were compared against vancomycin as a control.

For experiment [2], the system named is M. tuberculosis 91-2225. Nature of the experiment: In vitro MIC by standard dilution method, M. tuberculosis. Type of experiment: cell-based. As to conditions: Mycobacterium tuberculosis, 912225; lowest concentration required to kill the organism or inhibit its growth in vitro; visual observation.
Experiment [3] concerns M. avium LPR. Description: In vitro MIC by standard dilution method, M. avium LPR. As to conditions: Mycobacterium avium, read-out: MIC M. avium LPR.
Procedure: (§1) The in vitro activity reported in Table 2 was conducted by standard dilution methods known to those skilled in the art. Briefly, serial two-fold dilutions of antibiotic are prepared in a diluent, and a standard volume of mycobacterial growth medium is added to drug aliquot. The medium is inoculated with a standardized mycobacterial cell suspension, and then incubated under appropriate conditions. Following incubation, the Minimal Inhibitory Concentration (MIC) is determined by visual observation. The MIC is defined as the lowest drug concentration (in µg/ml) required to inhibit mycobacterial growth.
Experiment [4] has as its system M. avium Lowell Young. Nature of the experiment: In vitro MIC by standard dilution method, M. avium Lowell Young. The note with it: Mycobacterium avium, read-out: MIC M. avium Lowell Young.
Procedure: as §1
Experiment [5] relates to M. tuberculosis (Erdman strain). Nature of the experiment: In vivo antimycobacterial activity, organ counts in infected CD-1 mice. The note with it: CD-1 mice infected intravenously with 1 x 10^7 M. tuberculosis. Also noted: species or system Mycobacterium tuberculosis. As to the method:
The in vivo data for Table 3 was obtained from CD-1 mice infected intravenously with 1 x 10^7 viable M. tuberculosis (Erdman strain). Twenty-four hours later drug treatment was initiated. All the drugs were given by oral gavage twice daily for four weeks. At the end of therapy, viable cell counts were determined from homogenates of spleens and lungs.

Setting [6] is: UC9213, po, 144 h, read-out: ED50 (mg/kg) Example, PO, female mice infected intraperitoneally.
[7] abbreviates: UC9213, 144 h, female mice infected intraperitoneally, read-out: ED50 (mg/kg) Example, PO.
[8] abbreviates: positive control, 25 mg/kg orally twice daily for four weeks.
[9] abbreviates: 100 mg/kg by oral gavage twice daily for four weeks.

SMILES strings stand for the structures. ≈ marks a conversion by molar mass, not a printed value. Where “and” joins values, the source holds several entries; their conditions need not be identical. Equal entries are not always repeated. Where two headings read alike, the source gives them in different places.

Broadly, the MIC is the smallest concentration in the dilution series that meets the test's criterion for growth inhibition. For `CC(=O)NC[C@H]1CN(c2ccc(N3CCS(=O)(=O)CC3)c(F)c2)C(=O)O1` [Example 2, (S)-N-[[3-[3-fluoro-4-(1,1-dioxothiomorpholin-4-yl)phenyl]-2-oxo-5-oxazolidinyl]methyl]acetamide], the ED50 in experiment [1] (setting [6]) was 2 mg/kg. Moreover, the minimum inhibitory concentration (MIC) in experiment [2] is 0.5 µg/mL (≈ 1.3 µM); in experiment [3], 4 µg/mL (≈ 10.4 µM); in experiment [4], 2 µg/mL (≈ 5.19 µM).

In the case of `CC(=O)NC[C@H]1CN(c2ccc(N3CC[S+]([O-])CC3)c(F)c2)C(=O)O1` [Example 3, (S)-N-[[3-[3-fluoro-4-(1-oxothiomorpholin-4-yl)phenyl]-2-oxo-5-oxazolidinyl]methyl]acetamide], in experiment [1] (setting [7]), the ED50 came out at 3.4 mg/kg.

For `NNC(=O)c1ccncc1` [ISONIAZID, Isoniazid, reference compound], the MIC in experiment [2] was ≤ 0.015 µg/mL. In experiment [5] (setting [8]), the “Log10 Colony-Forming Units of Mycobacterium tuberculosis Per Organ, Lung” value stood at 3.81 and the “Log10 Colony-Forming Units of Mycobacterium tuberculosis Per Organ, Spleen” value came out at 4.36.

On to `COC(=O)NC[C@H]1CN(c2ccc(N3CCOCC3)c(F)c2)C(=O)O1` [Example 9], for which the ED50 in experiment [1] (setting [7]) amounted to 4.4 mg/kg.

Take `CC(=O)NC[C@H]1CN(c2cc(F)c(N3CCOCC3)c(F)c2)C(=O)O1` [Example 4]: in experiment [1] (setting [6]), the ED50 is 5.5 mg/kg. In experiment [5] (setting [9]), the “Log10 Colony-Forming Units of Mycobacterium tuberculosis Per Organ, Lung” value stood at 5.03 and the “Log10 Colony-Forming Units of Mycobacterium tuberculosis Per Organ, Spleen” value is recorded as 5.24.

On to `CC(=O)NC[C@H]1CN(c2ccc(N3CCOCC3)c(F)c2)C(=O)O1` [Example 5], for which the ED50 in experiment [1] (setting [7]) was 5.6 mg/kg.

`CC(=O)NC[C@H]1CN(c2ccc(N3CCSCC3)c(F)c2)C(=O)O1` [Example 1, (S)-N-[[3-[3-fluoro-4-(4-thiomorpholinyl)phenyl]-2-Oxo-5-oxazolidinyl]methyl]acetamide]: the ED50 in experiment [1] (setting [6]) came out at 1.25 mg/kg. Further, the MIC was 0.5 µg/mL (≈ 1.41 µM) in experiment [2], 4 µg/mL (≈ 11.3 µM) in experiment [3] and 1 µg/mL (≈ 2.83 µM) in experiment [4]. Besides, the “Log10 Colony-Forming Units of Mycobacterium tuberculosis Per Organ, Lung” value in experiment [5] (setting [9]) was 3.59. In experiment [5] (setting [9]), the “Log10 Colony-Forming Units of Mycobacterium tuberculosis Per Organ, Spleen” value is 4.61.

Take `O=C(NC[C@H]1CN(c2ccc(N3CCOCC3)c(F)c2)C(=O)O1)C(Cl)Cl` [Example 10]: in experiment [1] (setting [7]), the ED50 turned out to be 6.8 mg/kg.

Turning to `O=CNC[C@H]1CN(c2ccc(N3CCOCC3)c(F)c2)C(=O)O1` [Example 8], the ED50 in experiment [1] (setting [7]) stood at 12.4 mg/kg.

For the molecule `CN[C@H](CC(C)C)C(=O)N[C@H]1C(=O)N[C@@H](CC(N)=O)C(=O)N[C@H]2C(=O)N[C@H]3C(=O)N[C@H](C(=O)N[C@H](C(=O)O)c4cc(O)cc(O)c4-c4cc3ccc4O)[C@H](O)c3ccc(c(Cl)c3)Oc3cc2cc(c3O[C@@H]2O[C@H](CO)[C@@H](O)[C@H](O)[C@H]2O[C@H]2C[C@](C)(N)[C@H](O)[C@H](C)O2)Oc2ccc(cc2Cl)[C@H]1O` [Vancomycin, vancomycin, reference compound], in experiment [1] (vancomycin control run alongside the example of the same row, female mice infected intraperitoneally, subcutaneous treatment one hour and five hours after infection, 8640 min), the “ED50 (mg/kg) Vancomycin, SC” value is 2.0 mg/kg and 3.9 mg/kg.

With `CC[C@H]1OC(=O)[C@H](C)[C@@H](O[C@H]2C[C@@](C)(OC)[C@@H](O)[C@H](C)O2)[C@H](C)[C@@H](O[C@@H]2O[C@H](C)C[C@H](N(C)C)[C@H]2O)[C@](C)(O)C[C@@H](C)CN(C)[C@H](C)[C@@H](O)[C@]1(C)O` [AZITHROMYCI N, azithromycin, reference compound], the MIC is 8 µg/mL (≈ 10.7 µM) in experiment [3] and 4 µg/mL (≈ 5.34 µM) in experiment [4].

The values above are taken from patent publication EP0717738B1, “SUBSTITUTED OXAZINE AND THIAZINE OXAZOLIDINONE ANTIMICROBIALS” (priority 1993, dated 1995).
